In patent US20210038668A1, “TRADITIONAL CHINESE MEDICINE COMPOSITION FOR PREVENTING AND/OR TREATING ISCHEMIC REPERFUSION INJURY” (TASLY PHARMACEUTICAL GROUP CO., LTD., priority 2018, published 2021):

Columns and labels:
[1] = tested on: Occludin; assay: Western blotting of Occludin, cortex of ischemic penumbra; type: in vivo, C57BL/6 mice; details: brain tissue 24 hours after administration, sham = 1.00; tPA 10 mg/kg alone; T541 20 mg/kg + tPA 10 mg/kg
Procedure: After reperfused for 24 hours, mice were perfused by normal saline; Western blotting analysis was conducted to the penumbra field of infarcted right cerebral cortex. After perfused, mice brain tissue was taken out; cerebellum and prefrontal lobe were cut off; the brain tissue of right brain close to 1 cm of the central joint of left and right hemispheres along the sagittal view; infarcted penumbra field of the rest tissues was cut off along an 45° angle; the cerebral cortex of the penumbra field was peeled off and preserved at low temperature. Right cerebral cortex was taken and added 1×RIPA lysate and a Cocktail protease inhibitor (1:100, Cell Signaling Technology, US) for full pyrolysis and ultrasonic treatment, and then 17000 g were centrifuged for 30 minutes. Supernatant was taken and added 5×loading buffer by volume, boiled for 20 minutes in boiling water, and then preserved at −80° C. Excessive supernatant was taken out and quantified by a BCA protein quantification liquor (ThermoScientific, US) to measure absorbance value at 560 nm of ELIASA and to calculate the protein concentration according to a standard curve. […] The density of electrophoretic strips was analyzed by an image analysis software Quantityone. […]

[2] = tested on: VE-cadherin; assay: Western blotting of VE-cadherin, endothelial cells after hypoxia/reoxygenation; type: cell-based; details: rat brain endothelial cells, hypoxia 4.5 h/reoxygenation 3 h; tPA 20 mcg/ml alone (model group); T541 400 mcg/ml + tPA 20 mcg/ml
Source text: Establishment of rat brain endothelial cell H/R model: rat brain endothelial cells were purchased from ATCC, and then subcultured to 5-6 generations in normal conditions for further experiment. […]

[3] = tested on: mitochondrial complex I; assay: Mitochondrial complex I activity in brain tissue; type: in vivo, C57BL/6 mice; details: brain tissue 24 hours after administration; tPA 10 mg/kg alone or + T541 20 mg/kg or ingredients at Table 7 doses
Source text: To compare the therapeutical effect on reperfusion injury caused by tPA thrombolysis between the traditional Chinese medicinal composition of the present invention and each ingredient (total saponins of Astragalus, the experiment was divided into the following group (tPA is combined with T541, individual ingredient thereof and compatibility of any two ingredients) specifically as follows: tPA+total saponins of Astragalus (tPA+HQ), tPA+ salvianolic acids (tPA+DS), tPA+Panax notoginseng saponins (tPA+SQ), tPA+ total saponins of Astragalus+salvianolic acids (tPA+HQ+DS), tPA+ total saponins of Astragalus+Panax notoginseng saponins (tPA+HQ+SQ), tPA+ salvianolic acids+Panax notoginseng saponins (tPA+DS+SQ) and tPA+T541. Normal saline served as an isovolumetric control. The usage number in each group is 6.
ELISA adsorption kit was used to measure the change on the content of MDA, 8-hydroxyl-2′-deoxyguanosine (8-OHdG), adenosine triphosphate (ATP), adenosine diphosphate (ADP) and adenosine monophosphate (AMP) in the penumbra field of brain tissue cortex of the mode, and the change on the activity of mitochondrial complexes I, II, IV and V. 6 samples were used to repeat the independent experiment for at least three times for each group of data.

[4] = tested on: TUNEL positive cells of cerebral cortex in penumbra; assay: TUNEL staining of brain tissue; type: in vivo, C57BL/6 mice; details: brain tissue 24 hours after administration; tPA 10 mg/kg alone; T541 20 mg/kg + tPA 10 mg/kg
Procedure: After reperfused for 24 hours, mice were killed to take brain, so as to observe the degree of cerebral hemorrhage and infarct size, measure the hemoglobin content in brain tissues after bleeding, detect dry/wet weight ratio and Evans Blue leakage of brain tissues, reflect the condition of tissue edema, observe the severity order of apoptosis by TUNEL staining brain tissues, observe the change of blood brain barrier of the blood vessel when injured by making Western blotting analysis on connexins Occludin, JAM-1, ZO-1, VE-cadherin and laminin, namely, the component of basement membrane and by conducting immunofluorescent staining on partial connexins and laminin, detect the change of the structure after cerebral ischemia reperfusion by a scanning electron microscope and IEM, and measure the change on the activity of brain tissues MDA, 8-OHdG, ATP/ADP/AMP and mitochondrial complexes I, II and IV by enzyme-linked immunosorbent assay (ELISA).

Substance: tPA: tissue-type plasminogen activator (tPA) for thrombolysis
- Occludin/β-actin [1]: 0.38 ± 0.02
- VE-cadherin/β-actin [2]: 0.58 ± 0.07
- Complex I activity [3]: 1.75 ± 0.14
- TUNEL positive cell counting [4]: 27.14 ± 1.77
